ChEMBL document CHEMBL1821631, “A novel binding assay identifies high affinity ligands to the rosiglitazone binding site of mitoNEET” (Bioorg Med Chem Lett, 2011)
Activity calls are given as the source filed them. No cut-off for these calls is given here.

target: T1, CDGSH iron-sulfur domain-containing protein 1 (Homo sapiens, UniProt Q9NZ45); test: Displacement of [3H]-rosiglitazone from human recombinant C-terminal His-tagged cytosolic domain of mitoNEET (32-108) by scintillation proximity assay
T1 sequence (Q9NZ45 whole entry): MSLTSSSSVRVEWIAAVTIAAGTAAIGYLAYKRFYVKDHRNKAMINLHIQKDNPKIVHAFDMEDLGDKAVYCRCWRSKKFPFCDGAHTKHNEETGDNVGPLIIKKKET

Q: `COc1cc(/C=C2/SC(=S)NC2=O)c(OC)cc1O` was tested. Which IC50 did it give?
A: 4.47 µM

Q: With `O=C1NC(=O)C(Cc2ccc(O)cc2)S1` (stereo unspecified) [GLITAZONE] as the molecule, how does the IC50 read?
A: 14 µM

Q: `Cc1cc(C)cc(CC2SC(=O)NC2=O)c1` (stereo unspecified) was tested. Which IC50 did it give?
A: 13.3 µM

Q: `O=C1NC(=O)/C(=C\c2cc(Br)c(O)cc2Br)S1` was tested. Which IC50 did it give?
A: 2.93 µM

Q: Which IC50 does the source give for `COc1cc(/C=C2\SC(=S)NC2=O)ccc1O` here?
A: 1.73 µM

Q: With `O=C1NC(=O)/C(=C/c2ccc3nccnc3c2)S1` as the molecule, how does the IC50 read?
A: 3.26 µM

Q: Which IC50 does the source give for `CC(C)(C)c1cc(CC2SC(=O)N=C2O)cc(C(C)(C)C)c1O` (stereo unspecified) here?
A: 7.36 µM

Q: With `COc1ccccc1/C=C1\SC(=O)N(CCN)C1=O` as the molecule, how does the IC50 read?
A: 82.3 µM

Q: `O=C1NC(=O)C(Cc2ccc3c(c2)OC(F)(F)O3)S1` (stereo unspecified) was tested. Which IC50 did it give?
A: 5.23 µM

Q: `O=C1NC(=S)S/C1=C/c1ccncc1` was tested. Which IC50 did it give?
A: 5.97 µM

Q: How did the IC50 turn out when `O=C(/C=C1/SC(=O)NC1=O)Nc1cccc(O)c1` was run?
A: 13.7 µM

Q: Which IC50 does the source give for `Cc1cc(CC2SC(=O)NC2=O)cc(C)c1O` (stereo unspecified) here?
A: 9.56 µM

Q: `O=S(=O)(O)Oc1cc(O)cc(/C=C/c2ccc(O)cc2)c1` was tested. Which IC50 did it give?
A: 3.36 µM

Q: With `O=C(/C=C1/SC(=O)NC1=O)Nc1ccccc1` as the molecule, how does the IC50 read?
A: 11.1 µM

target: T2, CDGSH iron-sulfur domain-containing protein 1 (Homo sapiens) (UniProt Q9NZ45); test: Displacement of [3H]-rosiglitazone from human recombinant C-terminal His-tagged cytosolic domain of mitoNEET (32-108) at 80 uM by scintillation proximity assay
T2 sequence (whole entry): T1 sequence (Q9NZ45 whole entry)

Q: With `Oc1ccc(/C=C/c2cc(O)cc(O)c2)cc1` as the molecule, how does the inhibition read?
A: inactive

Q: How did the inhibition turn out when `N#CCCN1C(=O)S/C(=C\c2ccccc2)C1=O` was run?
A: inactive
